Data from US10590084B2, “Cyclic keto-amide compounds as calpain modulators and methods of production and use thereof” (Blade Therapeutics, Inc., priority 2016, dated 2020).

Key:
Human Calpain 2/NS1 = molecular target: T1, Human Calpain 2/NS1 (Homo sapiens, UniProt P17655); test: Biochemical inhibition of Calpain 2, continuous fluorescence (FRET) assay; conditions: mean; class symbols; read-out: Human Calpain 2/NS1 IC50 (nM)_MEAN
T1 sequence (P17655 1-700): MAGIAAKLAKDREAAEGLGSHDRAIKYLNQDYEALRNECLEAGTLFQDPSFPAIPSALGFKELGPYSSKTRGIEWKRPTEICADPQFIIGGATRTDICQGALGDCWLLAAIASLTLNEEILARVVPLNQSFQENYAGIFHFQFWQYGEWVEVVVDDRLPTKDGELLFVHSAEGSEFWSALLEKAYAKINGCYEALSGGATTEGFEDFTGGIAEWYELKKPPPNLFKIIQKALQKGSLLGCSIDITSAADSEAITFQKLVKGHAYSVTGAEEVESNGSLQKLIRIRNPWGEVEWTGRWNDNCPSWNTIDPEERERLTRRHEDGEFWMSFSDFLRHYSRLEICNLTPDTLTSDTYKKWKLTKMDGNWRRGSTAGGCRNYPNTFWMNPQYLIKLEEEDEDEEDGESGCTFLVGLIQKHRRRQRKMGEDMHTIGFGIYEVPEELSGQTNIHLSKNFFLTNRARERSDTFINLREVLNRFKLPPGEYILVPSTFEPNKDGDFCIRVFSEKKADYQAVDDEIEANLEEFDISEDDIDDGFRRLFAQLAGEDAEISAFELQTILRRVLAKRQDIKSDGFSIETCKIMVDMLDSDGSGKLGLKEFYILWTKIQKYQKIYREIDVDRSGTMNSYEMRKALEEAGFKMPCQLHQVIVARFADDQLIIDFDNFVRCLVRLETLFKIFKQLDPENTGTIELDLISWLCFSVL
T1 sequence (P04632 1-268 partner): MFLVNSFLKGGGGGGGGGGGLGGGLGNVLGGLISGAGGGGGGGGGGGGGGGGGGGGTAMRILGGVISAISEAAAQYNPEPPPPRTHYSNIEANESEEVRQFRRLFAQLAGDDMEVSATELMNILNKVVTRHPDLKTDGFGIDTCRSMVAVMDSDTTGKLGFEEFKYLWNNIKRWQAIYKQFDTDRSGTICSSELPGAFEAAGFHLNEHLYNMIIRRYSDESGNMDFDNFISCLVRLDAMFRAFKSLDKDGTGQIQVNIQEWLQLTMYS
Procedure: (§1) Biochemical inhibition of Calpains 1, 2, and 9.
(§2) Calpains 1, 2, and 9 activity and inhibition thereof are assessed by means of a continuous fluorescence assay. The SensoLyte 520 Calpain substrate (Anaspec Inc) is optimized for detecting calpain activity. This substrate contains a novel internally quenched 5-FAM/QXLTM 520 FRET pair. Calpains 1, 2 and 9 cleave the FRET substrate into two separate fragments resulting in an increase of 5-FAM fluorescence that is proportional to calpain activity.
(§3) Assays are typically setup in black 384-well plates using automated liquid handling as follows. Calpain assay base buffer typically contains 50 mM Tris, pH 7.5, 100 mM NaCl and 1 mM DTT. Inhibitors are serially diluted in DMSO and used to setup 2× mixtures with calpains in the aforementioned buffer. After incubation at ambient temperature (25 C), the reaction is initiated by adding a 2× mix of the fluorescent peptide substrate and CaCl2 (required for in-situ calpain activation) in the same buffer. Reaction progress curve data are typically collected for 10 min using excitation/emission wavelengths of 490 nm/520 nm on SpectraMax i3x or the FLIPR-Tetra plate readers (Molecular Devices Inc). Reaction rates were calculated from progress curve slopes typically over 1-5 min. Dose response curves (rate vs. log inhibitor concentration) were typically fit to a 4-parameter logistic function to extract IC50 values.
Column B: Human Calpain 2/NS1 IC50 (nM)_MEAN

Human Calpain 1/NS1 = molecular target: T2, Human Calpain 1/NS1 (Homo sapiens, UniProt P07384); test: Biochemical inhibition of Calpain 1, continuous fluorescence (FRET) assay; conditions: mean; class symbols; read-out: Human Calpain 1/NS1 IC50 (nM)_MEAN
T2 sequence (P07384 1-714): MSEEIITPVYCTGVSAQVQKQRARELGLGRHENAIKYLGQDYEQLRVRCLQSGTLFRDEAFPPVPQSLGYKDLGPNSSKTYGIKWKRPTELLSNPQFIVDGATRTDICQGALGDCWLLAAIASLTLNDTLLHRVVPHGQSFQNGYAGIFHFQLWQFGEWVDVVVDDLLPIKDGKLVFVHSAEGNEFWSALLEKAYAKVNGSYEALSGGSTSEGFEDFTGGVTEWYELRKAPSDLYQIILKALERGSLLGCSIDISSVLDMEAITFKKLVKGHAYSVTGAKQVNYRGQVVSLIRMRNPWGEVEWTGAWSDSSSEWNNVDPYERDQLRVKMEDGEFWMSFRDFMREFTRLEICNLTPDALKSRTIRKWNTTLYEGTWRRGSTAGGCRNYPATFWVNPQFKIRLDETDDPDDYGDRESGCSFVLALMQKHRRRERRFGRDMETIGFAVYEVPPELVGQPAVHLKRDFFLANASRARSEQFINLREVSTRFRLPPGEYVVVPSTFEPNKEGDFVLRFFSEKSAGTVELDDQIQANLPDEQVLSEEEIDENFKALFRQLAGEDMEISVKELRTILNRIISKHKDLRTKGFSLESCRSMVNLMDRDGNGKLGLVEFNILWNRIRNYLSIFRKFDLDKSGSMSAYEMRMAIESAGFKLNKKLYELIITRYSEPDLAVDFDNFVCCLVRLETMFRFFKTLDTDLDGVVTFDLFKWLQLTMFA
T2 sequence (P04632 1-268 partner): T1 sequence (P04632 1-268 partner)
Procedure: as §1, §2, §3
Column A: Human Calpain 1/NS1 IC50 (nM)_MEAN

Human Calpain 9/NS1 = molecular target: T3, Human Calpain 9/NS1 (Homo sapiens, UniProt O14815); test: Biochemical inhibition of Calpain 9, continuous fluorescence (FRET) assay; conditions: mean; class symbols; read-out: Human Calpain 9/NS1 IC50 (nM)_MEAN
T3 sequence (O14815 1-690): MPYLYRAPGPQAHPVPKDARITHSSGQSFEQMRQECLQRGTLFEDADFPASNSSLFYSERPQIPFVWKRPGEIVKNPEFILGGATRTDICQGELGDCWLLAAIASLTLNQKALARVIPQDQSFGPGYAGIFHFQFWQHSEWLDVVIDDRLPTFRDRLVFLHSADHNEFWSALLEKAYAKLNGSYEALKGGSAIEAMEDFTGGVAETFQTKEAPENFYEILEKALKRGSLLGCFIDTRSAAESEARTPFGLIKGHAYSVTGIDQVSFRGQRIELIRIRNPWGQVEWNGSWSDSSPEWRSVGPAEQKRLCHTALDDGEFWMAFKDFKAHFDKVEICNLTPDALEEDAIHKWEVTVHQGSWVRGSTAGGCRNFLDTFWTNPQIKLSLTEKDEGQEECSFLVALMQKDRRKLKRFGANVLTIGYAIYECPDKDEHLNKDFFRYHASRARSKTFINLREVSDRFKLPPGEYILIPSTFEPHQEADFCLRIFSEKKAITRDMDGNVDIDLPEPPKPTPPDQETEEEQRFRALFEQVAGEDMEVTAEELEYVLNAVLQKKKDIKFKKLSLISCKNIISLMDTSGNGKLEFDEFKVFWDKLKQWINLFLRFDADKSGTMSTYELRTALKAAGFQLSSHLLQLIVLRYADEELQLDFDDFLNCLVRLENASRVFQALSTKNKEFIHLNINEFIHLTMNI
T3 sequence (P04632 1-268 partner): T1 sequence (P04632 1-268 partner)
Procedure: as §1, §2, §3
Column C: Human Calpain 9/NS1 IC50 (nM)_MEAN • A: <3 uM; • B: 3-10 uM; • C: >10 uM;

`CC(C)[C@H](NC(=O)OCc1ccccc1)C(=O)NC1CCCNC(=O)C1=O` (stereo partly drawn) [Compound 1] gave an IC50 (Human Calpain 2/NS1) of 3000 to 10000 nM, an IC50 (Human Calpain 1/NS1) of 3000 to 10000 nM and an IC50 (Human Calpain 9/NS1) of over 10000 nM.

In the case of `CC(C)C[C@H](NC(=O)[C@@H](NC(=O)OCc1ccccc1)C(C)C)C(=O)NC1CCCNC(=O)C1=O` (stereo partly drawn) [Compound 2], the IC50 (Human Calpain 2/NS1) is reported as 3000 to 10000 nM, the IC50 (Human Calpain 1/NS1) is reported as over 10000 nM and the IC50 (Human Calpain 9/NS1) is reported as over 10000 nM.

In the case of `CC(C)[C@H](NS(=O)(=O)c1ccc(F)cc1)C(=O)NC1CCCNC(=O)C1=O` (stereo partly drawn) [Compound 3], the IC50 (Human Calpain 2/NS1) is reported as over 10000 nM, the IC50 (Human Calpain 1/NS1) is reported as over 10000 nM and the IC50 (Human Calpain 9/NS1) is reported as over 10000 nM.

With `CC(C)[C@H](NC(=O)OCc1ccccc1)C(=O)NC1CCCCCCNC(=O)C1=O` (stereo partly drawn) [Compound 4] the IC50 (Human Calpain 2/NS1) was under 3000 nM, the IC50 (Human Calpain 1/NS1) was under 3000 nM and the IC50 (Human Calpain 9/NS1) was under 3000 nM.

In the case of `CC(C)[C@H](NC(=O)OCc1ccccc1)C(=O)NC1CCNC(=O)C1=O` (stereo partly drawn) [Compound 5], the IC50 (Human Calpain 2/NS1) is reported as over 10000 nM, the IC50 (Human Calpain 1/NS1) is reported as over 10000 nM and the IC50 (Human Calpain 9/NS1) is reported as over 10000 nM.

With `CC(C)[C@H](NC(=O)OCc1ccccc1)C(=O)NC1CCCN(C)C(=O)C1=O` (stereo partly drawn) [Compound 6] the IC50 (Human Calpain 2/NS1) was over 10000 nM, the IC50 (Human Calpain 1/NS1) was over 10000 nM and the IC50 (Human Calpain 9/NS1) was over 10000 nM.

Molecule `O=C1NCCCCCC[C@H](NC(=O)c2ccccc2-c2ccccc2)C1=O` [Compound 8] has an IC50 (Human Calpain 2/NS1) of under 3000 nM, an IC50 (Human Calpain 1/NS1) of 3000 to 10000 nM and an IC50 (Human Calpain 9/NS1) of under 3000 nM.

In the case of `CC(C)[C@H](NC(=O)OCc1ccccc1)C(=O)N[C@H]1CCCCCCCNC(=O)C1=O` [Compound 9], the IC50 (Human Calpain 2/NS1) is reported as under 3000 nM, the IC50 (Human Calpain 1/NS1) is reported as under 3000 nM and the IC50 (Human Calpain 9/NS1) is reported as under 3000 nM.
